Data set [1] is described as follows: Cytotoxicity assay (resazurin) in L6 rat skeletal muscle cells. As to conditions: L6 rat skeletal muscle cells (ATCC CRL-1458), read-out: Cytotoxic EC50 L6. Format: cell-based. On the procedure: Seeding of the L6 cells was done in 96-well plates at 4 × 10^3 cells per well in 100 µL volume; they were then cultured for 24 h. Ten millimolar (10 mM) DMSO stocks of the compounds to be tested were used to prepare 16-point dose-response curves. Each concentration was evaluated in triplicate (using the cell culture medium as diluent) at a final volume of 300 µL (compound concentration range of 50–0.00152 µM and DMSO at 0.5 %). The spent growth medium from the 24 h-seeded cells was carefully replaced with 100 µL of the prepared working concentrations of the compounds to be tested and incubated for 72 h. The spent medium was again carefully replaced (without disturbing the layer of cells at the bottom of each well) with 100 µL fresh medium, after which 20 µL of 0.02% resazurin (previously diluted in 1X PBS) was added to the wells and incubated for 2 h in the dark at 37 °C. The plates were then shaken for 5 s, and fluorescence was read at 570–590 nm in a TECAN Infinite F200 fluorimeter.
A general note: The colour change of resazurin is a common sign of viable cells or microbes.

Data set [2] has as its system P. falciparum 3D7. Kind of data set: P. falciparum 3D7 lactate dehydrogenase whole parasite assay. The data set is classed as cell-based, Plasmodium falciparum. The note with it: for EC50: Plasmodium falciparum. How it is done: The EC50 determinations of the isolated compounds were performed with 16-point dose-response curves. Each concentration was evaluated in triplicate (concentration range of 100–0.00305 µM) using the P. falciparum 3D7 lactate dehydrogenase whole parasite assay as previously described by Pérez-Moreno et al., 2016 [25]. The Plasmodium falciparum 3D7 strain is a clone of the NF54 strain, which was previously isolated from a patient. The parasites were maintained in O^+ human erythrocytes at 5% haematocrit and 0.1–8% parasitaemia, with incubation at 37 °C, 1% O2, 5% CO2, and 94% N2 in complete medium (10.4 g/L RPMI 1640, 150 μM hypoxanthine, 12.5 μg/mL gentamicin, 0.2% NaHCO3, 0.5% albuMAX II, 2% human O^+ serum). The […] (LDH) assay was performed in 384-well plates using late-ring/early trophozoite synchronized parasites at 2% hematocrit and 0.25% parasitaemia. Twenty-five microliters of (25 µL) parasite culture were incubated with 5 µL of the test compounds (parasite medium/100 nM chloroquine used as positive/negative growth controls) for 72 h, after which the plates were frozen for 4 h, thawed for 1 h at room temperature before adding 70 µL of freshly prepared LDH solution (1 U/mL diaphorase, 143 µM APAD, 143 mM sodium L-lactate, 178.75 µM NBT, 0.7% Tween 20, 100 mM Tris-HCL) at pH 8.0. Plates were briefly shaken and incubated for 10 min (in the dark), and absorbance was read at 650 nm in an Envision plate reader (Perkin Elmer, Waltham, MA, USA).
(§1) The EC50 of all the biological assays were computed with the Genedata Screener application (Genedata AG, Basel, Switzerland) using the equation below to calculate percentage inhibition: Percentage inhibition=[1−(Abswell−Absneg/Abspos−Absneg)]×100
(§2) Here, Abswell = absorbance/well, Abspos = average absorbance in positive control wells, and Absneg = average absorbance in negative wells.

In another data set the test system is Hep G2 cells. Kind of data set: MTT-based cytotoxicity assay in HepG2 cells. Format: cell-based. As to conditions: Hep G2 EC50 versus P. falciparum 3D7 EC50. On the procedure: as §1, §2
(§3) The EC50 determinations of the isolated compounds were performed with 12-point dose-response curves. Each concentration was evaluated in triplicate (concentration range of 50–0.0244 µM) in an MTT-based assay performed in liver carcinoma Hep G2 HB-8065 ATCC (American Type Culture Collection) cells as previously described by Annang et al., 2020 [29]. Cells (96-well plates were used with seeding at 1 × 10^4 cells/well) were cultured in 200 µL MEM medium per well at 37 °C, 5% CO2 for 24 h, after which the spent media were replaced with 200 µL MEM medium and 1 μL of test compounds. DMSO (0.5%), 8 mM methyl methanesulfonate and doxorubicin were used as positive, negative, and standard drug controls, respectively. After 72 h incubation with the test compounds at 37 °C, 100 µL of 0.5 mg/mL MTT solution diluted in MEM without phenol red was added to each well, and plates were briefly shaken and further incubated for 3 h at 37 °C. The supernatant in each well was carefully discarded and replaced with 100 µL of DMSO, and plates were gently shaken (to solubilize the formazan formed) before reading the absorbance at 570 nm in a Victor2 plate reader (Perkin Elmer, USA).
(In general: Tetrazolium dyes change colour on reduction, which living cells bring about.)

Data set [3] can be described thus: MTT-based cytotoxicity assay in HepG2 cells. The data set is classed as cell-based. The note with it: human, Hep G2 liver carcinoma cells (ATCC HB-8065); 72 h, MTT; read-out: Cytotoxic EC50 Hep G2. On the procedure: as §1, §2, §3
Another data set relates to T. cruzi Tulahuen C4. Kind of data set: Transgenic T. cruzi β-D-galactosidase assay in infected L6 cells. The data set is classed as cell-based, Trypanosoma cruzi. As to conditions: for EC50: 96 h, infected L6 host cells, β-galactosidase readout, read-out: Antiparasitic EC50 T. cruzi Tulahuen C4; for activity against T. cruzi Tulahuen (in words): whole parasites, extracts in HTS / bioassay-guided testing. How it is done:
as §1, §2
The EC50 determinations of the isolated compounds were performed with 16-point dose-response curves. Each concentration was evaluated in triplicate (concentration range of 50–0.00152 µM) in the transgenic T. cruzi β-D-galactosidase assay as previously described by Annang et al., 2014 [27]. The T. cruzi Tulahuen strain used is a genetically modified strain that expresses the Escherichia coli β-galactosidase gene, lacZ [28]. It was kindly supplied by Marcel Kaiser (Swiss Tropical and Public Health Institute). The parasites were generally maintained in a growth medium (RPMI 1640 supplemented with 10% inactivated fetal bovine serum (iFBS), 100 µg/mL streptomycin, 100 U/mL penicillin, 2 mM L-glutamine) at 37 °C, 5% CO2. For the assay, transgenic trypomastigote stage parasites were used to infect L6 rat skeletal muscle cells (host). Fifty-five microliters (55 µL) of the infected L6 cell culture were dispensed into 384-well assay plates (2 × 10^3 infected L6 cells/well) containing 5 µL of the test compounds (parasite medium/10 µgmL^−1 benznidazole were used as positive/negative growth controls) and incubated for 96 h at 37 °C, after which 15 µL of assay solution (100 µM CRPG and 0.1% NP40 made up in PBS) were added to each well, and plates were further incubated in the dark for 4 h at 37 °C. Absorbance in the wells was read at 585 nm in an Envision plate reader (Perkin Elmer, Waltham, MA, USA).

Data set [4] relates to P. falciparum 3D7. Kind of data set: P. falciparum 3D7 lactate dehydrogenase whole parasite assay. Format: cell-based, Plasmodium falciparum. The note with it: whole parasites; extracts in HTS / bioassay-guided testing.
The test system of data set [5] is three different cell lines. The arrangement: method as in PMID 10656571. As to conditions: at 100 µM; cited from earlier work.
[6] abbreviates: C3 ketone (1) versus C3 hydroxyl (2).
The mark [7] stands for this setting: 3D7 / TULAHUEN, read-out: antiparasitic EC50 against both parasites (range).
The mark [8] stands for this setting: 3D7, 72 h, LDH readout, 16-point curves in triplicate, read-out: Antiparasitic EC50 P. falciparum 3D7.
Where [9] appears, read: Trypanosoma cruzi, TULAHUEN, L6, 96 h.

SMILES strings stand for the structures. Read-outs that look alike come from different tables or passages of the source.

Broadly, the EC50 is the midpoint of the concentration-response curve. Turning to `CC1(C)C(=O)CC[C@]2(C)[C@H]3Cc4c(O)cc5c(c4O[C@]3(C)CC[C@@H]12)CN(CCO)C5=O` [Compound 1, Memnobotrin C], the figures for the EC50 at 72 h in data set [1] and in data set [3] were under 98 nM and 1200 nM, respectively. Further, in the data set with P. falciparum 3D7 [2] (setting [6]), the “fold improvement of biological activity against P. falciparum 3D7 compared to compound 2” value was 5 fold. Also, the EC50 with P. falciparum 3D7 [2] (setting [7]) was 40 to 1370 nM; in the data set with P. falciparum 3D7 [2] (setting [8]), 40 ± 2 nM; with T. cruzi Tulahuen C4, 266 ± 24 nM; in the data set on T. cruzi Tulahuen C4 (setting [9]) it was 226 nM. For the same molecule, the “Selectivity index (SI), Hep G2 in comparison to activity in P. falciparum 3D7” value (“Selectivity index (SI) … in P. falciparum 3D7” below) with Hep G2 cells worked out at 30. For the same molecule, the “fold improvement of biological activity against T. cruzi Tulahuen C4 compared to compound 2” value with T. cruzi Tulahuen C4 (setting [6]) is on record as 5 fold.

In the case of `CC1(C)[C@@H](O)CC[C@]2(C)[C@H]3Cc4c(O)cc5c(c4O[C@]3(C)CC[C@@H]12)CN(CCO)C5=O` [Compound 2, memnobotrin D], the values for the EC50 at 72 h in data set [1] and in data set [3] were 1390 ± 40 nM and 4530 nM, respectively. The EC50 in the data set on P. falciparum 3D7 [2] (setting [7]) is 40 to 1370 nM; in the data set with P. falciparum 3D7 [2] (setting [8]) it was 201 ± 16 nM; in the data set with T. cruzi Tulahuen C4 (setting [9]), 1370 ± 18 nM. The “Selectivity index (SI) … in P. falciparum 3D7” value with Hep G2 cells stood at 22.5.

For `CC(=O)O[C@H]1CC[C@]2(C)[C@H]3Cc4c(O)cc5c(c4O[C@]3(C)CC[C@H]2C1(C)C)CN(CCO)C5=O` [Compound 3, 8-epi-memnobotrin B], in the data set with P. falciparum 3D7 [2], the “fold lower potency against P. falciparum 3D7 in comparison to compound 1” value is recorded as 179 fold. Besides, the EC50 in the data set on P. falciparum 3D7 [2] (setting [8]) worked out at 7170 ± 50 nM; with T. cruzi Tulahuen C4 (setting [9]), 41770 ± 10 nM. In the data set with T. cruzi Tulahuen C4, the “fold lower potency against T. cruzi Tulahuen C4 in comparison to compound 1” value amounted to 157 fold.

With `CC(=CCc1c(O)cc2c(c1O)C(=O)OC2)CCC=C(C)CCCC(C)(C)OC1OC(CO)C(O)C(O)C1O` (stereo not shown) [Compound 4], the values for the EC50 with P. falciparum 3D7 [2] (setting [8]) and with T. cruzi Tulahuen C4 (setting [9]) were 243 ± 23 nM and 934 ± 88 nM, respectively. Further, the “Selectivity index (SI) … in P. falciparum 3D7” value in the data set with Hep G2 cells came to 19.9. In addition, the EC50 at 72 h in data set [3] was 4840 nM.

Consider `C/C(=C\CCC1(C)C=Cc2c(cc3c(c2O)C(=O)OC3)O1)CCC(O)C(C)(C)O` (stereo not shown) [Compound 5], for which, in the data set with P. falciparum 3D7 [4], the “activity against P. falciparum 3D7 (in words)” value was “low or no biological activity”. For the same molecule, the EC50 at 72 h in data set [1] is over 50000 nM. For the same molecule, the half-maximal effective concentration (EC50) was 8000 ± 200 nM in the data set on P. falciparum 3D7 [2] (setting [8]) and over 50000 nM in the data set with T. cruzi Tulahuen C4 (setting [9]). For the same molecule, the “activity against T. cruzi Tulahuen (in words)” value in the data set on T. cruzi Tulahuen C4 is “low or no biological activity”.

For the molecule `Cc1cc(O)c2c(c1)O[C@]1(C)CC[C@H]3C(C)(C)[C@@H](O)CC[C@]3(C)[C@H]1C2` [Compound 6], in the data set with P. falciparum 3D7 [4], the “activity against P. falciparum 3D7 (in words)” value was “low or no biological activity”. The EC50 at 72 h in data set [1] was 2000 ± 100 nM. Moreover, the EC50 with P. falciparum 3D7 [2] (setting [8]) was 4000 ± 100 nM; in the data set with T. cruzi Tulahuen C4 (setting [9]), 7000 ± 200 nM. The “activity against T. cruzi Tulahuen (in words)” value in the data set with T. cruzi Tulahuen C4 is on record as “low or no biological activity”.

In the case of `C=C1CC[C@H]2C(C)(C)C(=O)CC[C@]2(C)[C@H]1Cc1c(O)cc2c(c1O)C(=O)OC2` [Compound 7], the “activity against P. falciparum 3D7 (in words)” value in the data set on P. falciparum 3D7 [4] was “low or no biological activity”. The EC50 at 72 h in data set [1] is over 50000 nM. In addition, the EC50 with P. falciparum 3D7 [2] (setting [8]) is over 100000 nM; with T. cruzi Tulahuen C4 (setting [9]), over 50000 nM. Besides, in the data set with T. cruzi Tulahuen C4, the “activity against T. cruzi Tulahuen (in words)” value is “low or no biological activity”.

As to `CC1(C)[C@@H](O)CC[C@]2(C)[C@H]3Cc4c(O)cc5c(c4O[C@]3(C)CC[C@@H]12)C(=O)OC5` [Compound 8], in the data set on P. falciparum 3D7 [4], the “activity against P. falciparum 3D7 (in words)” value was “low or no biological activity”. In addition, the EC50 is 17800 ± 100 nM in the data set with P. falciparum 3D7 [2] (setting [8]) and over 50000 nM in the data set on T. cruzi Tulahuen C4 (setting [9]). Further, the “activity against T. cruzi Tulahuen (in words)” value with T. cruzi Tulahuen C4 is given as “low or no biological activity”.

Turning to `CC(=O)O[C@H]1CC[C@]2(C)[C@H]3Cc4c(O)cc5c(c4O[C@@]3(C)CC[C@H]2C1(C)C)CN(CCO)C5=O` [Memnobotrin B], the “cytotoxic activity, inhibition percentages” value in data set [5] is listed as 80–90%.

(Values after PMC9962372, “Antiparasitic Meroterpenoids Isolated from Memnoniella dichroa CF-080171” (Pharmaceutics, 2023).)
